Legend:
[1] = system: barnyardgrass (Echinochloa crus-galli); experiment: Test A preemergence, visual injury rating 0-100 (0 no effect, 100 complete control); assay type: in vivo
[2] = system: foxtail, giant (giant foxtail, Setaria faberii); experiment: Test A preemergence, visual injury rating 0-100; assay type: in vivo
[3] = system: kochia (Kochia scoparia); experiment: Test A preemergence, visual injury rating 0-100; assay type: in vivo
[4] = system: pigweed (Amaranthus retroflexus); experiment: Test A preemergence, visual injury rating 0-100; assay type: in vivo
[5] = system: ragweed (common ragweed, Ambrosia elatior); experiment: Test A preemergence, visual injury rating 0-100; assay type: in vivo
[6] = system: ryegrass, Italian (Italian ryegrass, Lolium multiflorum); experiment: Test A preemergence, visual injury rating 0-100; assay type: in vivo
[7] = system: barnyardgrass (Echinochloa crus-galli); experiment: Test A postemergence, visual injury rating 0-100; assay type: in vivo; conditions: 0 to 100 scale
[8] = system: blackgrass (Alopecurus myosuroides); experiment: Test A postemergence, visual injury rating 0-100; assay type: in vivo; conditions: 0 to 100 scale
[9] = system: corn (Zea mays); experiment: Test A postemergence, visual injury rating 0-100; assay type: in vivo; conditions: 0 to 100 scale
[10] = system: foxtail, giant (giant foxtail, Setaria faberii); experiment: Test A postemergence, visual injury rating 0-100; assay type: in vivo; conditions: 0 to 100 scale
[11] = system: galium (catchweed bedstraw, Galium aparine); experiment: Test A postemergence, visual injury rating 0-100; assay type: in vivo; conditions: 0 to 100 scale
[12] = system: kochia (Kochia scoparia); experiment: Test A postemergence, visual injury rating 0-100; assay type: in vivo; conditions: 0 to 100 scale
[13] = system: pigweed (Amaranthus retroflexus); experiment: Test A postemergence, visual injury rating 0-100; assay type: in vivo; conditions: 0 to 100 scale
[14] = system: ragweed (common ragweed, Ambrosia elatior); experiment: Test A postemergence, visual injury rating 0-100; assay type: in vivo; conditions: 0 to 100 scale
[15] = system: ryegrass, Italian (Italian ryegrass, Lolium multiflorum); experiment: Test A postemergence, visual injury rating 0-100; assay type: in vivo; conditions: 0 to 100 scale
[16] = system: wheat (Triticum aestivum); experiment: Test A postemergence, visual injury rating 0-100; assay type: in vivo; conditions: 0 to 100 scale
[17] = system: ducksalad (Heteranthera limosa); experiment: Test B flooded paddy test, visual rating 0-100; conditions: Flood, 250 g ai/ha, applied to paddy water, rated after 13 to 15 days
[18] = system: barnyardgrass (Echinochloa crus-galli); experiment: Test B flooded paddy test, visual rating 0-100; conditions: Flood, 250 g ai/ha, applied to paddy water, rated after 13 to 15 days
[19] = system: rice (Oryza sativa); experiment: Test B flooded paddy test, visual rating 0-100 (0 no effect, 100 complete control); conditions: Flood, 250 g ai/ha, applied to paddy water, rated after 13 to 15 days

Structure (SMILES)	Barnyardgrass plant response rating (0 to 100 scale) ([1]; 125 g ai/ha)	Barnyardgrass plant response rating (0 to 100 scale) ([1]; 500 g ai/ha)	Foxtail, Giant plant response rating (0 to 100 scale) ([2]; 125 g ai/ha)	Foxtail, Giant plant response rating (0 to 100 scale) ([2]; 500 g ai/ha)	Kochia plant response rating (0 to 100 scale) ([3]; 125 g ai/ha)	Kochia plant response rating (0 to 100 scale) ([3]; 500 g ai/ha)	Pigweed plant response rating (0 to 100 scale) ([4]; 125 g ai/ha)	Pigweed plant response rating (0 to 100 scale) ([4]; 500 g ai/ha)	Ragweed plant response rating (0 to 100 scale) ([5]; 125 g ai/ha)	Ragweed plant response rating (0 to 100 scale) ([5]; 500 g ai/ha)	Ryegrass, Italian plant response rating (0 to 100 scale) ([6]; 125 g ai/ha)	Ryegrass, Italian plant response rating (0 to 100 scale) ([6]; 500 g ai/ha)	Barnyardgrass plant response rating ([7]; 125 g ai/ha)	Barnyardgrass plant response rating ([7]; 500 g ai/ha)	Blackgrass plant response rating ([8]; 125 g ai/ha)	Blackgrass plant response rating ([8]; 500 g ai/ha)	Corn plant response rating ([9]; 125 g ai/ha)	Corn plant response rating ([9]; 500 g ai/ha)	Foxtail, Giant plant response rating ([10]; 125 g ai/ha)	Foxtail, Giant plant response rating ([10]; 500 g ai/ha)	other results
CC1=[N+]([O-])C(C(=O)Nc2cccc(F)c2F)C(c2cccc(C(F)(F)F)n2)C1 (centres unmarked) [Compound 90]	90	90	50	90	0	60	0	0	0	0	0	0	10	80	30	50	0	0	20	90	Galium plant response rating ([11]; 125 g ai/ha): 20; Galium plant response rating ([11]; 500 g ai/ha): 20; Kochia plant response rating ([12]; 125 g ai/ha): 0; Kochia plant response rating ([12]; 500 g ai/ha): 0; Pigweed plant response rating ([13]; 125 g ai/ha): 0; Pigweed plant response rating ([13]; 500 g ai/ha): 0; Ragweed plant response rating ([14]; 125 g ai/ha): 0; Ragweed plant response rating ([14]; 500 g ai/ha): 0; Ryegrass, Italian plant response rating ([15]; 125 g ai/ha): 0; Ryegrass, Italian plant response rating ([15]; 500 g ai/ha): 0; Wheat plant response rating ([16]; 125 g ai/ha): 0; Wheat plant response rating ([16]; 500 g ai/ha): 0; Ducksalad plant response rating (0 to 100 scale) [17]: 90; Barnyardgrass plant response rating (0 to 100 scale) [18]: 15; Rice plant response rating (0 to 100 scale) [19]: 0
COc1cc(C)cc(C2CC(C)=[N+]([O-])C2C(=O)Nc2cccc(F)c2F)c1 (centres unmarked) [Compound 91]	90	90	90	90	0	60	0	60	20	70	80	90	70	90	60	80	20	70	70	90	Galium plant response rating ([11]; 125 g ai/ha): 0; Galium plant response rating ([11]; 500 g ai/ha): 30; Kochia plant response rating ([12]; 125 g ai/ha): 0; Kochia plant response rating ([12]; 500 g ai/ha): 30; Pigweed plant response rating ([13]; 125 g ai/ha): 0; Pigweed plant response rating ([13]; 500 g ai/ha): 30; Ragweed plant response rating ([14]; 125 g ai/ha): 0; Ragweed plant response rating ([14]; 500 g ai/ha): 30; Ryegrass, Italian plant response rating ([15]; 125 g ai/ha): 50; Ryegrass, Italian plant response rating ([15]; 500 g ai/ha): 50; Wheat plant response rating ([16]; 125 g ai/ha): 20; Wheat plant response rating ([16]; 500 g ai/ha): 50; Ducksalad plant response rating (0 to 100 scale) [17]: 55; Barnyardgrass plant response rating (0 to 100 scale) [18]: 65; Rice plant response rating (0 to 100 scale) [19]: 0
CC1=[N+]([O-])C(C(=O)Nc2cccc(F)c2F)C(c2cc(C)cc(C(F)(F)F)c2)C1 (centres unmarked) [Compound 92]	90	90	90	90	0	50	30	80	0	70	80	90	70	90	70	70	70	80	70	90	Galium plant response rating ([11]; 125 g ai/ha): 50; Galium plant response rating ([11]; 500 g ai/ha): 60; Kochia plant response rating ([12]; 125 g ai/ha): 30; Kochia plant response rating ([12]; 500 g ai/ha): 70; Pigweed plant response rating ([13]; 125 g ai/ha): 20; Pigweed plant response rating ([13]; 500 g ai/ha): 60; Ragweed plant response rating ([14]; 125 g ai/ha): 0; Ragweed plant response rating ([14]; 500 g ai/ha): 70; Ryegrass, Italian plant response rating ([15]; 125 g ai/ha): 60; Ryegrass, Italian plant response rating ([15]; 500 g ai/ha): 70; Wheat plant response rating ([16]; 125 g ai/ha): 70; Wheat plant response rating ([16]; 500 g ai/ha): 80; Ducksalad plant response rating (0 to 100 scale) [17]: 25; Barnyardgrass plant response rating (0 to 100 scale) [18]: 70; Rice plant response rating (0 to 100 scale) [19]: 0
CC1=[N+]([O-])C(C(=O)Nc2cccc(F)c2F)C(c2cc(C)cc(Cl)c2)C1 (centres unmarked) [Compound 94]	90	90	90	90	10	60	20	80	30	90	60	80	80	90	70	90	70	80	80	90	Galium plant response rating ([11]; 125 g ai/ha): 20; Galium plant response rating ([11]; 500 g ai/ha): 60; Kochia plant response rating ([12]; 125 g ai/ha): 20; Kochia plant response rating ([12]; 500 g ai/ha): 30; Pigweed plant response rating ([13]; 125 g ai/ha): 20; Pigweed plant response rating ([13]; 500 g ai/ha): 70; Ragweed plant response rating ([14]; 125 g ai/ha): 20; Ragweed plant response rating ([14]; 500 g ai/ha): 70; Ryegrass, Italian plant response rating ([15]; 125 g ai/ha): 60; Ryegrass, Italian plant response rating ([15]; 500 g ai/ha): 90; Wheat plant response rating ([16]; 125 g ai/ha): 40; Wheat plant response rating ([16]; 500 g ai/ha): 80; Ducksalad plant response rating (0 to 100 scale) [17]: 100; Barnyardgrass plant response rating (0 to 100 scale) [18]: 60; Rice plant response rating (0 to 100 scale) [19]: 0

Source: patent publication US11498899B2, “Nitrone herbicides” (FMC Corporation, priority 2016, dated 2022)
